Results reported in US20190290892A1, “METHODS OF DETERMINING DOSING OF A THERAPEUTIC AGENT BASED ON MEASURED LEVELS OF A METABOLITE” (Clear Creek Bio, Inc., priority 2018, published 2019).

Legend:
[1] = Burris, 650 mg/m^2 brequinar (days 1, 8 and 15) with 75 mg/m^2 cisplatin (day 1); cited from earlier work
[2] = Adverse events in subjects receiving brequinar intravenously once a week; type: in vivo, human; details: i.v. once a week, 209 subjects
[3] = system: advanced lung cancer; details: Gralla, weekly rapid iv injection from 5 mg/kg (200 mg/m^2), previously treated patients with advanced lung cancer; cited from earlier work

Cc1c(-c2ccc(-c3ccccc3F)cc2)nc2ccc(F)cc2c1C(=O)O [brequinar, 6-fluoro-2-(2′-fluoro-1,1′ biphenyl-4-yl)-3-methyl-4-quinoline carboxylic acid]
effect of combination on individual drug pharmacokinetic parameters [1]: without significant modifications of individual drug pharmacokinetic parameters | All Body Systems, No. of Patients Experiencing the AE, 5y Max Grade 1 [2]: 36 | All Body Systems, No. of Patients Experiencing the AE, 5y Max Grade 2 [2]: 76 | All Body Systems, No. of Patients Experiencing the AE, 5y Max Grade 3 [2]: 55 | All Body Systems, No. of Patients Experiencing the AE, 5y Max Grade 4 [2]: 35 | Anemia, No. of Patients [2]: 90 | Anemia, No. of Patients Experiencing the AE, 5y Max Grade 1 [2]: 14 | Anemia, No. of Patients Experiencing the AE, 5y Max Grade 2 [2]: 48 | Anemia, No. of Patients Experiencing the AE, 5y Max Grade 3 [2]: 23 | Anemia, No. of Patients Experiencing the AE, 5y Max Grade 4 [2]: 5 | Anorexia, No. of Patients [2]: 15 | Anorexia, No. of Patients Experiencing the AE, 5y Max Grade 1 [2]: 11 | Anorexia, No. of Patients Experiencing the AE, 5y Max Grade 2 [2]: 3 | Anorexia, No. of Patients Experiencing the AE, 5y Max Grade 3 [2]: 1 | Anorexia, No. of Patients Experiencing the AE, 5y Max Grade 4 [2]: 0 | Anorexia, Percent [2]: 7.2% | Constipation, No. of Patients [2]: 10 | Constipation, No. of Patients Experiencing the AE, 5y Max Grade 1 [2]: 6 | Constipation, No. of Patients Experiencing the AE, 5y Max Grade 2 [2]: 2 | Constipation, No. of Patients Experiencing the AE, 5y Max Grade 3 [2]: 1 | Constipation, No. of Patients Experiencing the AE, 5y Max Grade 4 [2]: 0 | Constipation, Percent [2]: 4.8% | Diarrhea, No. of Patients [2]: 77 | Diarrhea, No. of Patients Experiencing the AE, 5y Max Grade 1 [2]: 43 | Diarrhea, No. of Patients Experiencing the AE, 5y Max Grade 2 [2]: 21 | Diarrhea, No. of Patients Experiencing the AE, 5y Max Grade 3 [2]: 10 | Diarrhea, No. of Patients Experiencing the AE, 5y Max Grade 4 [2]: 3 | Dyspepsia, No. of Patients [2]: 7 | Dyspepsia, No. of Patients Experiencing the AE, 5y Max Grade 1 [2]: 6 | Dyspepsia, No. of Patients Experiencing the AE, 5y Max Grade 2 [2]: 1 | Dyspepsia, No. of Patients Experiencing the AE, 5y Max Grade 3 [2]: 0 | Dyspepsia, No. of Patients Experiencing the AE, 5y Max Grade 4 [2]: 0 | Dyspepsia, Percent [2]: 3.3% | Fatigue, No. of Patients [2]: 33 | Fatigue, No. of Patients Experiencing the AE, 5y Max Grade 1 [2]: 23 | Fatigue, No. of Patients Experiencing the AE, 5y Max Grade 2 [2]: 8 | Fatigue, No. of Patients Experiencing the AE, 5y Max Grade 3 [2]: 2 | Fatigue, No. of Patients Experiencing the AE, 5y Max Grade 4 [2]: 0 | Fever, No. of Patients [2]: 11 | Fever, No. of Patients Experiencing the AE, 5y Max Grade 1 [2]: 4 | Fever, No. of Patients Experiencing the AE, 5y Max Grade 2 [2]: 7 | Fever, No. of Patients Experiencing the AE, 5y Max Grade 3 [2]: 0 | Fever, No. of Patients Experiencing the AE, 5y Max Grade 4 [2]: 0 | Fever, Percent [2]: 5.3% | Granulocytopenia, No. of Patients [2]: 37 | Granulocytopenia, No. of Patients Experiencing the AE, 5y Max Grade 1 [2]: 16 | Granulocytopenia, No. of Patients Experiencing the AE, 5y Max Grade 2 [2]: 17 | Granulocytopenia, No. of Patients Experiencing the AE, 5y Max Grade 3 [2]: 3 | Granulocytopenia, No. of Patients Experiencing the AE, 5y Max Grade 4 [2]: 5 | Headache, No. of Patients [2]: 7 | Headache, No. of Patients Experiencing the AE, 5y Max Grade 1 [2]: 4 | Headache, No. of Patients Experiencing the AE, 5y Max Grade 2 [2]: 3 | Headache, No. of Patients Experiencing the AE, 5y Max Grade 3 [2]: 0 | Headache, No. of Patients Experiencing the AE, 5y Max Grade 4 [2]: 0 | Headache, Percent [2]: 3.3% | Infection, No. of Patients [2]: 7 | Infection, No. of Patients Experiencing the AE, 5y Max Grade 1 [2]: 4 | Infection, No. of Patients Experiencing the AE, 5y Max Grade 2 [2]: 3 | Infection, No. of Patients Experiencing the AE, 5y Max Grade 3 [2]: 0 | Infection, No. of Patients Experiencing the AE, 5y Max Grade 4 [2]: 0 | Infection, Percent [2]: 3.3% | Leukopenia, No. of Patients [2]: 69 | Leukopenia, No. of Patients Experiencing the AE, 5y Max Grade 1 [2]: 26 | Leukopenia, No. of Patients Experiencing the AE, 5y Max Grade 2 [2]: 31 | Leukopenia, No. of Patients Experiencing the AE, 5y Max Grade 3 [2]: 10 | Leukopenia, No. of Patients Experiencing the AE, 5y Max Grade 4 [2]: 2 | Leukopenia, Percent [2]: 33.0% | Mucositis, No. of Patients [2]: 52 | Mucositis, No. of Patients Experiencing the AE, 5y Max Grade 1 [2]: 23 | Mucositis, No. of Patients Experiencing the AE, 5y Max Grade 2 [2]: 15 | Mucositis, No. of Patients Experiencing the AE, 5y Max Grade 3 [2]: 11 | Mucositis, No. of Patients Experiencing the AE, 5y Max Grade 4 [2]: 3 | Nausea, No. of Patients [2]: 91 | Nausea, No. of Patients Experiencing the AE, 5y Max Grade 1 [2]: 59 | Nausea, No. of Patients Experiencing the AE, 5y Max Grade 2 [2]: 19 | Nausea, No. of Patients Experiencing the AE, 5y Max Grade 3 [2]: 12 | Nausea, No. of Patients Experiencing the AE, 5y Max Grade 4 [2]: 1 | Pain Inject Site, No. of Patients [2]: 24 | Pain Inject Site, No. of Patients Experiencing the AE, 5y Max Grade 1 [2]: 24 | Pain Inject Site, No. of Patients Experiencing the AE, 5y Max Grade 2 [2]: 0 | Pain Inject Site, No. of Patients Experiencing the AE, 5y Max Grade 3 [2]: 0 | Pain Inject Site, No. of Patients Experiencing the AE, 5y Max Grade 4 [2]: 0 | Pain, Abdominal, No. of Patients [2]: 8 | Pain, Abdominal, No. of Patients Experiencing the AE, 5y Max Grade 1 [2]: 4 | Pain, Abdominal, No. of Patients Experiencing the AE, 5y Max Grade 2 [2]: 3 | Pain, Abdominal, No. of Patients Experiencing the AE, 5y Max Grade 3 [2]: 1 | Pain, Abdominal, No. of Patients Experiencing the AE, 5y Max Grade 4 [2]: 0 | Pain, Abdominal, Percent [2]: 3.8% | Rash, No. of Patients [2]: 53 | Rash, No. of Patients Experiencing the AE, 5y Max Grade 1 [2]: 26 | Rash, No. of Patients Experiencing the AE, 5y Max Grade 2 [2]: 15 | Rash, No. of Patients Experiencing the AE, 5y Max Grade 3 [2]: 9 | Rash, No. of Patients Experiencing the AE, 5y Max Grade 4 [2]: 3 | Somnolence, No. of Patients [2]: 9 | Somnolence, No. of Patients Experiencing the AE, 5y Max Grade 1 [2]: 7 | Somnolence, No. of Patients Experiencing the AE, 5y Max Grade 2 [2]: 2 | Somnolence, No. of Patients Experiencing the AE, 5y Max Grade 3 [2]: 0 | Somnolence, No. of Patients Experiencing the AE, 5y Max Grade 4 [2]: 0 | Somnolence, Percent [2]: 4.3% | Stomatitis, No. of Patients [2]: 60 | Stomatitis, No. of Patients Experiencing the AE, 5y Max Grade 1 [2]: 32 | Stomatitis, No. of Patients Experiencing the AE, 5y Max Grade 2 [2]: 20 | Stomatitis, No. of Patients Experiencing the AE, 5y Max Grade 3 [2]: 7 | Stomatitis, No. of Patients Experiencing the AE, 5y Max Grade 4 [2]: 1 | Thrombocytopenia, No. of Patients [2]: 94 | Thrombocytopenia, No. of Patients Experiencing the AE, 5y Max Grade 1 [2]: 26 | Thrombocytopenia, No. of Patients Experiencing the AE, 5y Max Grade 2 [2]: 31 | Thrombocytopenia, No. of Patients Experiencing the AE, 5y Max Grade 3 [2]: 16 | Thrombocytopenia, No. of Patients Experiencing the AE, 5y Max Grade 4 [2]: 21 | Thrombocytopenia, Percent [2]: 45.0% | Vomit, No. of Patients [2]: 73 | Vomit, No. of Patients Experiencing the AE, 5y Max Grade 1 [2]: 32 | Vomit, No. of Patients Experiencing the AE, 5y Max Grade 2 [2]: 24 | Vomit, No. of Patients Experiencing the AE, 5y Max Grade 3 [2]: 12 | Vomit, No. of Patients Experiencing the AE, 5y Max Grade 4 [2]: 5

NC(=O)c1[nH]nc([C@@H]2O[C@H](CO)[C@@H](O)[C@H]2O)c1O [pyrazofurin, 5-[(2S,3R,4S,5R)-3,4-dihydroxy-5-(hydroxymethyl)oxolan-2-yl]-4-hydroxy-1H-pyrazole-3-carboxamide]
therapeutic activity [3]: little therapeutic value as a single agent
